Reference: patent US20260070945A1, “MACROCYCLIC IMMUNOMODULATORS” (Bristol-Myers Squibb Company, priority 2022, published 2026)
Where a SMILES comes first, the peptide text is derived from it. Bridges are numbered along the chain shown (N, C = ends). [ ]: non-standard residue; d: D form. The star is where a group is joined. ξ: configuration not given here. Phe(3-CF3) = N[C@@H](Cc1cccc(C(F)(F)F)c1)C(=O)O; Phe(4-CF3) = N[C@@H](Cc1ccc(C(F)(F)F)cc1)C(=O)O; Phe(4-COOH) = N[C@@H](Cc1ccc(C(=O)O)cc1)C(=O)O; Bip = N[C@@H](Cc1ccc(-c2ccccc2)cc1)C(=O)O; NH(CH2)14COOH = O=C(O)CCCCCCCCCCCCCCN*; Phe(3-Me) = Cc1cccc(C[C@H](N)C(=O)O)c1; NH(CH2)12COOH = O=C(O)CCCCCCCCCCCCN*; Val(3-OH) = CC(C)(O)[C@H](N)C(=O)O; Cha = N[C@@H](CC1CCCCC1)C(=O)O; Thr(3ξ) = CC(O)[C@H](N)C(=O)O; Carboxymethyl = O=C(O)C*; NMeA = CN[C@@H](C)C(=O)O; Dab = NCC[C@H](N)C(=O)O; AEEA = NCCOCCOCC(=O)O; CF3 = FC(F)(F)*

Target: T1, PD-1/PD-L1 interaction (PE-labeled human PD-L1-Ig binding to Jurkat cell line over-expressing human PD-1) (Homo sapiens, UniProt Q15116)
T1 construct: expressed in transfected cells; host or cells: Jurkat
Assay: Jurkat-PD-1 Cell Binding High-Content Screening Assay (CBA)
Conditions: PE-labeled PD-L1-Ig 20 nM final, Jurkat-hPD-1 cells; read-out: Jurkat HPD1 PDL1 IC50
How it was run: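 In this imaging assay, cells in 10% FCS medium see compound for 2 h at 37 °C and then labeled ligand at 20 nM final for 1 h. Paraformaldehyde fixation, Hoechst 33342 staining and dPBS washes precede image capture.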

T1 sequence (Q15116 25-288): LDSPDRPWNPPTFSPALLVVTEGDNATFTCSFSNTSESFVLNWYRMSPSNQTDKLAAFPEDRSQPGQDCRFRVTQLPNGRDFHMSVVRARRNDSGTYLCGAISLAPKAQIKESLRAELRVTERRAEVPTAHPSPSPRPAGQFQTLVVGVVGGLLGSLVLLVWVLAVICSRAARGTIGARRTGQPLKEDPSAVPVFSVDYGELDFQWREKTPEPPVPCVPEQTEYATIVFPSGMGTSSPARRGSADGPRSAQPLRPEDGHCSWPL

Row | SMILES | IC50 [nM]
1 | CC(C)C[C@H]1NC(=O)[C@H](C)N(C)C(=O)[C@H](Cc2ccc(C(=O)O)cc2)NC(=O)[C@H](Cc2ccc(-c3ccccc3)cc2)NC(=O)[C@H](Cc2ccc(C(=O)O)cc2)NC(=O)[C@H](Cc2cccc(C(F)(F)F)c2)NC(=O)[C@H](CC(=O)O)NC(=O)[C@H](Cc2ccc(C(=O)O)cc2)NC(=O)[C@H](C(C)O)NC(=O)CSC[C@@H](C(=O)N[C@@H](CCN)C(=O)NCCOCCOCC(=O)NCCCCCCCCCCCCC(=O)O)NC(=O)[C@H](CC(=O)O)NC(=O)[C@H](C(C)C)NC(=O)[C@H](CC2CCCCC2)NC(=O)[C@H](CCN)NC1=O (stereo partly drawn) [Example 2612] ({CH2CO}-[Thr(3ξ)][Phe(4-COOH)]D[Phe(3-CF3)][Phe(4-COOH)][Bip][Phe(4-COOH)][NMeA][dL][Dab][Cha]VDC[Dab][AEEA]-{NH(CH2)12COOH}; thioether N-14) | 62.9
2 | CC(C)C[C@H]1NC(=O)[C@H](C)N(C)C(=O)[C@H](Cc2ccc(C(=O)O)cc2)NC(=O)[C@H](Cc2ccc(-c3ccccc3)cc2)NC(=O)[C@H](Cc2ccc(C(=O)O)cc2)NC(=O)[C@H](Cc2cccc(C(F)(F)F)c2)NC(=O)[C@H](CC(=O)O)NC(=O)[C@H](Cc2ccc(C(=O)O)cc2)NC(=O)[C@H](C(C)O)NC(=O)CSC[C@@H](C(=O)N[C@@H](CCN)C(=O)NCCOCCOCC(=O)NCCOCCOCC(=O)NCCCCCCCCCCCCCCC(=O)O)NC(=O)[C@H](CCC(=O)O)NC(=O)[C@H](C(C)C)NC(=O)[C@H](CC2CCCCC2)NC(=O)[C@H](CCN)NC1=O (stereo partly drawn) [Example 2613] ({CH2CO}-[Thr(3ξ)][Phe(4-COOH)]D[Phe(3-CF3)][Phe(4-COOH)][Bip][Phe(4-COOH)][NMeA][dL][Dab][Cha]VEC[Dab][AEEA][AEEA]-{NH(CH2)14COOH}; thioether N-14) | 383
3 | CC(C)C[C@H]1NC(=O)[C@H](C)N(C)C(=O)[C@H](CCC(N)=O)NC(=O)[C@H](Cc2ccc(-c3ccccc3)cc2)NC(=O)[C@H](Cc2ccc(C(=O)O)cc2)NC(=O)[C@H](Cc2cccc(C(F)(F)F)c2)NC(=O)[C@H](CC(=O)O)NC(=O)[C@H](Cc2ccc(OCC(=O)O)cc2)NC(=O)[C@H](Cc2ccc(OCC(=O)O)cc2)NC(=O)CSC[C@@H](C(=O)N[C@@H](CCN)C(=O)NCCOCCOCC(=O)NCCOCCOCC(=O)NCCCCCCCCCCCCCCC(=O)O)NC(=O)[C@H](CO)NC(=O)[C@H](C(C)(C)O)NC(=O)[C@H](CC2CCCCC2)NC(=O)[C@H](CCN)NC1=O [Example 2614] ({CH2CO}-Y(Carboxymethyl)Y(Carboxymethyl)D[Phe(3-CF3)][Phe(4-COOH)][Bip]Q[NMeA][dL][Dab][Cha][Val(3-OH)]SC[Dab][AEEA][AEEA]-{NH(CH2)14COOH}; thioether N-14) | 190
4 | CC(C)C[C@H]1NC(=O)[C@H](C)N(C)C(=O)[C@H](Cc2ccc(C(=O)O)cc2)NC(=O)[C@H](Cc2ccc(-c3ccccc3)cc2)NC(=O)[C@H](Cc2ccc(C(=O)O)cc2)NC(=O)[C@H](Cc2cccc(C(F)(F)F)c2)NC(=O)[C@H](CC(=O)O)NC(=O)[C@H](Cc2ccc(C(=O)O)cc2)NC(=O)[C@H](C(C)O)NC(=O)CSC[C@@H](C(=O)N[C@@H](CCN)C(=O)NCCOCCOCC(=O)NCCOCCOCC(=O)NCCCCCCCCCCCCC(=O)O)NC(=O)[C@H](CC(=O)O)NC(=O)[C@H](C(C)C)NC(=O)[C@H](CC2CCCCC2)NC(=O)[C@H](CCN)NC1=O (stereo partly drawn) [Example 2615] ({CH2CO}-[Thr(3ξ)][Phe(4-COOH)]D[Phe(3-CF3)][Phe(4-COOH)][Bip][Phe(4-COOH)][NMeA][dL][Dab][Cha]VDC[Dab][AEEA][AEEA]-{NH(CH2)12COOH}; thioether N-14) | 64.1
5 | CC(C)C[C@H]1NC(=O)[C@H](C)N(C)C(=O)[C@H](Cc2ccc(C(=O)O)cc2)NC(=O)[C@H](Cc2ccc(-c3ccccc3)cc2)NC(=O)[C@H](Cc2ccc(C(=O)O)cc2)NC(=O)[C@H](Cc2cccc(C(F)(F)F)c2)NC(=O)[C@H](CC(=O)O)NC(=O)[C@H](Cc2ccc(C(=O)O)cc2)NC(=O)[C@H](C(C)O)NC(=O)CSC[C@@H](C(=O)N[C@@H](CCN)C(=O)NCCOCCOCC(=O)NCCOCCOCC(=O)NCCCCCCCCCCCCCCC(=O)O)NC(=O)[C@H](CC(=O)O)NC(=O)[C@H](C(C)C)NC(=O)[C@H](CC2CCCCC2)NC(=O)[C@H](CCN)NC1=O (stereo partly drawn) [Example 2616] ({CH2CO}-[Thr(3ξ)][Phe(4-COOH)]D[Phe(3-CF3)][Phe(4-COOH)][Bip][Phe(4-COOH)][NMeA][dL][Dab][Cha]VDC[Dab][AEEA][AEEA]-{NH(CH2)14COOH}; thioether N-14) | 427
6 | CC(=O)NCCCC[C@@H]1NC(=O)[C@H](C(C)(C)O)NC(=O)[C@H](CC2CCCCC2)NC(=O)[C@H](CCN)NC(=O)[C@@H](CC(C)C)NC(=O)[C@H](C)N(C)C(=O)[C@H](CCC(N)=O)NC(=O)[C@H](Cc2ccc(-c3ccccc3)cc2)NC(=O)[C@H](Cc2ccc(C(=O)O)cc2)NC(=O)[C@H](Cc2cccc(C(F)(F)F)c2)NC(=O)[C@H](CC(=O)O)NC(=O)[C@H](Cc2ccc(OCC(=O)O)cc2)NC(=O)[C@H](Cc2ccc(OCC(=O)O)cc2)NC(=O)CSC[C@@H](C(=O)N[C@@H](CCN)C(=O)NCCOCCOCC(=O)NCCCCCCCCCCCCC(=O)O)NC1=O [Example 2617] ({CH2CO}-Y(Carboxymethyl)Y(Carboxymethyl)D[Phe(3-CF3)][Phe(4-COOH)][Bip]Q[NMeA][dL][Dab][Cha][Val(3-OH)]K(Ac)C[Dab][AEEA]-{NH(CH2)12COOH}; thioether N-14) | 20.1
7 | CC(=O)NCCCC[C@@H]1NC(=O)[C@H](C(C)(C)O)NC(=O)[C@H](CC2CCCCC2)NC(=O)[C@H](CCN)NC(=O)[C@@H](CC(C)C)NC(=O)[C@H](C)N(C)C(=O)[C@H](CCC(N)=O)NC(=O)[C@H](Cc2ccc(-c3ccccc3)cc2)NC(=O)[C@H](Cc2ccc(C(F)(F)F)cc2)NC(=O)[C@H](Cc2cccc(C)c2)NC(=O)[C@H](CC(=O)O)NC(=O)[C@H](Cc2ccc(OCC(=O)O)cc2)NC(=O)[C@H](Cc2ccc(OCC(=O)O)cc2)NC(=O)CSC[C@@H](C(=O)N[C@@H](CCN)C(=O)NCCCCCCCCCCCCCCC(=O)O)NC1=O [Example 2618] ({CH2CO}-Y(Carboxymethyl)Y(Carboxymethyl)D[Phe(3-Me)][Phe(4-CF3)][Bip]Q[NMeA][dL][Dab][Cha][Val(3-OH)]K(Ac)C[Dab]-{NH(CH2)14COOH}; thioether N-14) | 210
8 | CC(=O)NCCCC[C@@H]1NC(=O)[C@H](C(C)(C)O)NC(=O)[C@H](CC2CCCCC2)NC(=O)[C@H](CCN)NC(=O)[C@@H](CC(C)C)NC(=O)[C@H](C)N(C)C(=O)[C@H](CCC(N)=O)NC(=O)[C@H](Cc2ccc(-c3ccccc3)cc2)NC(=O)[C@H](Cc2ccc(C(=O)O)cc2)NC(=O)[C@H](Cc2cccc(C)c2)NC(=O)[C@H](CC(=O)O)NC(=O)[C@H](Cc2ccc(OCC(=O)O)cc2)NC(=O)[C@H](Cc2ccc(C(F)(F)F)cc2)NC(=O)CSC[C@@H](C(=O)N[C@@H](CCN)C(=O)NCCCCCCCCCCCCC(=O)O)NC1=O [Example 2619] ({CH2CO}-[Phe(4-CF3)]Y(Carboxymethyl)D[Phe(3-Me)][Phe(4-COOH)][Bip]Q[NMeA][dL][Dab][Cha][Val(3-OH)]K(Ac)C[Dab]-{NH(CH2)12COOH}; thioether N-14) | 43.9
9 | CC(=O)NCCCC[C@@H]1NC(=O)[C@H](C(C)(C)O)NC(=O)[C@H](CC2CCCCC2)NC(=O)[C@H](CCN)NC(=O)[C@@H](CC(C)C)NC(=O)[C@H](C)N(C)C(=O)[C@H](CCC(N)=O)NC(=O)[C@H](Cc2ccc(-c3ccccc3)cc2)NC(=O)[C@H](Cc2ccc(C(=O)O)cc2)NC(=O)[C@H](Cc2cccc(C)c2)NC(=O)[C@H](CC(=O)O)NC(=O)[C@H](Cc2ccc(OCC(=O)O)cc2)NC(=O)[C@H](Cc2ccc(OC(F)(F)F)cc2)NC(=O)CSC[C@@H](C(=O)N[C@@H](CCN)C(=O)NCCCCCCCCCCCCC(=O)O)NC1=O [Example 2620] ({CH2CO}-Y(CF3)Y(Carboxymethyl)D[Phe(3-Me)][Phe(4-COOH)][Bip]Q[NMeA][dL][Dab][Cha][Val(3-OH)]K(Ac)C[Dab]-{NH(CH2)12COOH}; thioether N-14) | 72
10 | CC(=O)NCCCC[C@@H]1NC(=O)[C@H](C(C)(C)O)NC(=O)[C@H](CC2CCCCC2)NC(=O)[C@H](CCN)NC(=O)[C@@H](CC(C)C)NC(=O)[C@H](C)N(C)C(=O)[C@H](CCC(N)=O)NC(=O)[C@H](Cc2ccc(-c3ccccc3)cc2)NC(=O)[C@H](Cc2ccc(C(F)(F)F)cc2)NC(=O)[C@H](Cc2cccc(C)c2)NC(=O)[C@H](CC(=O)O)NC(=O)[C@H](Cc2ccc(OCC(=O)O)cc2)NC(=O)[C@H](Cc2ccc(OCC(=O)O)cc2)NC(=O)CSC[C@@H](C(=O)N[C@@H](CCN)C(=O)NCCCCCCCCCCCCC(=O)O)NC1=O [Example 2621] ({CH2CO}-Y(Carboxymethyl)Y(Carboxymethyl)D[Phe(3-Me)][Phe(4-CF3)][Bip]Q[NMeA][dL][Dab][Cha][Val(3-OH)]K(Ac)C[Dab]-{NH(CH2)12COOH}; thioether N-14) | 22.4
11 | CC(=O)NCCCC[C@@H]1NC(=O)[C@H](C(C)(C)O)NC(=O)[C@H](CC2CCCCC2)NC(=O)[C@H](CCN)NC(=O)[C@@H](CC(C)C)NC(=O)[C@H](C)N(C)C(=O)[C@H](CCC(N)=O)NC(=O)[C@H](Cc2ccc(-c3ccccc3)cc2)NC(=O)[C@H](Cc2ccc(OCC(=O)O)cc2)NC(=O)[C@H](Cc2cccc(C(F)(F)F)c2)NC(=O)[C@H](CC(=O)O)NC(=O)[C@H](Cc2ccc(OCC(=O)O)cc2)NC(=O)[C@H](Cc2ccc(C(F)(F)F)cc2)NC(=O)CSC[C@@H](C(=O)N[C@@H](CCN)C(=O)NCCCCCCCCCCCCC(=O)O)NC1=O [Example 2622] ({CH2CO}-[Phe(4-CF3)]Y(Carboxymethyl)D[Phe(3-CF3)]Y(Carboxymethyl)[Bip]Q[NMeA][dL][Dab][Cha][Val(3-OH)]K(Ac)C[Dab]-{NH(CH2)12COOH}; thioether N-14) | 83.9
